Source: the supplement of paper PMC10307832

Assays:
Assay in all cases: relative viability (nuclei count vs DMSO), 5 days (fraction); higher = more cells survive
[1] = compound: CC(C)=CC[C@@H](O)C1=CC(=O)c2c(O)ccc(O)c2C1=O [Shikonin] + NC(=O)Nc1cc(-c2cccc(F)c2)sc1C(=O)N[C@H]1CCCNC1 [AZD7762] (partner 0.2 µM)
Outline: (§1)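 Relative viability divides the nuclei count in treated wells by that in vehicle wells. Lung cancer cell lines were seeded in 1536-well plates, dosed by pin tool the next day, and fixed and stained after 5 days in one step with final 0.05% Triton X-100, 1% formaldehyde and 1 ug/ml Hoechst. Dosing was a single drug or a fixed anchor-drug dose plus five library-drug doses (not always all listed) in √10 steps, and values are medians of duplicate plates imaged at 4×.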

[2] = compound: CC(C)N(CCCNC(=O)Nc1ccc(C(C)(C)C)cc1)C[C@H]1O[C@@H](n2ccc3c(N)ncnc32)[C@H](O)[C@@H]1O + Nc1ncn([C@H]2C[C@H](O)[C@@H](CO)O2)c(=O)n1 [Decitabine] (partner 2 µM)
Outline: as §1

[3] = compound: CC(C)=CC[C@@H](O)C1=CC(=O)c2c(O)ccc(O)c2C1=O [Shikonin] + CC(=O)c1c(C)c2cnc(Nc3ccc(N4CCNCC4)cn3)nc2n(C2CCCC2)c1=O [Palbociclib] (partner 0.5 µM)
Outline: as §1

[4] = compound: CC(C)N(CCCNC(=O)Nc1ccc(C(C)(C)C)cc1)C[C@H]1O[C@@H](n2ccc3c(N)ncnc32)[C@H](O)[C@@H]1O + C[C@@H](Oc1cc(-c2cnn(C3CCNCC3)c2)cnc1N)c1c(Cl)ccc(F)c1Cl [Crizotinib] (partner 1 µM)
Outline: as §1

Cell Line	relative viability ([1]; first compound 0.01 µM)	relative viability ([1]; first compound 0.1 µM)	relative viability ([1]; first compound 0.3162 µM)	relative viability ([1]; first compound 1 µM)	relative viability ([2]; first compound 0.08 µM)	relative viability ([2]; first compound 0.253 µM)	relative viability ([2]; first compound 0.8 µM)	relative viability ([2]; first compound 2.53 µM)	relative viability ([2]; first compound 8 µM)	relative viability ([3]; first compound 0.01 µM)	relative viability ([3]; first compound 0.1 µM)	relative viability ([3]; first compound 0.3162 µM)	relative viability ([3]; first compound 1 µM)	relative viability ([4]; first compound 0.08 µM)	relative viability ([4]; first compound 0.253 µM)	relative viability ([4]; first compound 0.8 µM)	relative viability ([4]; first compound 2.53 µM)	relative viability ([4]; first compound 8 µM)
NCI-H2342	0.503	0.451	0.471	0.472	0.667	0.649	0.655	0.815	0.713	0.499	0.465	0.526	0.537					
NCI-H520					0.531	0.469	0.405	0.471	0.492	0.191	0.206	0.229	0.208	0.789	0.548	0.858	0.707	0.733
SK-MES-1					0.436	0.377	0.36	0.384	0.377	0.317	0.3	0.295	0.288	0.991	1.05	1.01	0.997	0.956
SK-LU-1					0.626	0.642	0.657	0.702	0.568	0.379	0.404	0.437	0.373	1.03	0.931	0.969	1.08	0.875
Calu-6														0.744	0.863	0.79	0.771	0.781
CAL-12T	0.606	0.751	0.622	0.736						0.414	0.451	0.403	0.438	0.626	0.548	0.63	0.563	0.529
SW 1573					0.464		0.636	0.512	0.543	0.513	0.344	0.323	0.093	0.749	0.894	0.825	0.846	0.695
NCI-H1650					0.368	0.482	0.262	0.432	0.357	0.395	0.448	0.247	0.319	0.925	1.05		1.06	0.986
NCI-H1299														0.927	0.941	0.946	0.99	0.9
EBC-1														0.207	0.199	0.18	0.178	0.171
NCI-H2009					0.476	0.418	0.438	0.39	0.372	0.248	0.203	0.213	0.145	1.03	0.971	1.08	0.999	1.08
NCI-H1648	0.829		0.825	0.457	0.494	0.464	0.446	0.398	0.548	0.282		0.273	0.238					
COR-L23					0.46	0.33	0.467	0.48	0.456	0.26	0.299	0.306	0.29	0.601	0.724	0.765	0.755	0.574
COR-L 105					0.631	0.67	0.736	0.638	0.694	0.447	0.388	0.483	0.402	0.671	0.823	0.82	0.724	0.846
NCI-H661					0.521	0.469	0.542	0.577	0.623	0.405	0.395	0.426	0.4	1.05	1.15	1.13	1.08	0.978
NCI-H1793	0.555	0.531	0.494	0.629	0.481		0.77	0.537	0.359	0.283	0.321	0.306	0.345					
A549					0.278	0.292	0.291	0.215	0.189					0.7	0.609	0.739	0.708	0.714
NCI-H596	1.06	1.14	1.09	1.09	1.03	0.975	1.03	1.19	0.988					0.934	0.796	0.938	1	1.12
NCI-H1563														0.813	0.963	0.804	0.812	0.82
NCI-H1395	0.375	0.409	0.366	0.448	0.711	0.704	0.76	0.748	0.662	0.524	0.664	0.596	0.628					
NCI-H2228										0.812	0.939	0.754	0.729	0.586		0.468	0.543	0.44
NCI-H2023					0.256	0.25	0.242	0.205	0.191	0.437	0.363	0.411	0.401	0.753	0.733	0.859	0.755	0.751
NCI-H522	0.912	0.957	0.864	0.806	0.64	0.737	0.71	0.729	0.696	1.03	1.28	0.936	1.17					
IA-LM														0.868	0.747	0.84	0.939	0.644
NCI-H1703		0.125	0.124	0.113										0.635	0.61	0.685	0.647	0.491
